What was measured:
Assay type in all cases: cell-based
[1] = tested on: Clostridium butyricum M-II588; details: 1 w/v% carbohydrate, anaerobic, 37°C; for hydrogen generation (hydrogen production amount): 24 hours, calculated from increased amount of gas × hydrogen concentration (FIG. 6); for increased amount of gas: preculture 5 v/v%, 24 hours (FIG. 5)
[2] = tested on: Clostridium butyricum M-II588; details: 1 w/v% carbohydrate, sugar-free medium, anaerobic, 37°C, 20 hours; compared to other carbohydrates (FIG. 1)
[3] = tested on: Clostridium butyricum M-II588; details: 1 w/v% carbohydrate, anaerobic, 37°C, 20 hours
[4] = tested on: Staphylococcus aureus IFO 12732; experiment: Anti-bacterial action: Staphylococcus aureus count in (co-)culture, dilution plate technique; details: 20 hours, 37°C, anaerobic; 0.5 w/v% α-CD; butyric acid bacteria 9.4×10^6 CFU/mL; S. aureus 7.5×10^2 CFU/mL (FIG. 4)
Description: Culture of Staphylococcus aureus alone, Staphylococcus aureus and 0.5 w/v% α-CD in coexistence, Staphylococcus aureus and butyric acid bacteria in coexistence, or Staphylococcus aureus and butyric acid bacteria in coexistence with 0.5 w/v% α-CD added was performed at 37°C under an anaerobic condition, and the number of Staphylococcus aureus was counted 20 hours after the start of culture. The amount of Staphylococcus aureus added was 7.5×10^2 CFU/mL as the final concentration, and the amount of butyric acid bacteria added was 9.4×10^6 CFU/mL as the final concentration. The number of Staphylococcus aureus was measured by the dilution plate technique, that is, spreading a moderately diluted culture solution on an agar medium, culturing it at 37°C under an aerobic condition, and counting the number of colonies formed. The test results are shown as mean ± standard error of three samples.

Molecule | hydrogen generation (hydrogen production amount) [1] | increased amount of gas [1] | proliferation of butyric acid bacteria (turbidity change (ΔOD) at 660 nm) [2] | production of butyric acid ([3]; compared to other carbohydrates (FIG. 2)) | production of acetic acid ([3]; compared to other carbohydrates (FIG. 3)) | proliferation of Staphylococcus aureus (number of Staphylococcus aureus) [4]
OC[C@H]1O[C@@H](O[C@H]2[C@H](O)[C@@H](O)[C@@H](O[C@]3(CO)O[C@H](CO)[C@@H](O)[C@@H]3O)O[C@@H]2CO)[C@H](O)[C@@H](O)[C@H]1O [LS, Lactosucrose, reference compound] | very little | very little |  |  |  | 
α-cyclodextrin [α-CD] | hydrogen was generated | significantly increased | significantly promoted | significantly promoted | significantly promoted | almost no proliferation inhibiting effect
